Test results reported in patent publication US9474703B2, “Antimicrobial compositions containing cationic active ingredients and quaternary sugar derived surfactants” (Ecolab USA Inc., priority 2010, dated 2016).

Columns and labels:
[1] = tested on: Staphylococcus aureus ATCC 6538; test: Time kill method (ASTM E 2315), S. aureus; type: cell-based; conditions: 0.5% ADBAC Quat
Method: (§1) (1) Determination of Time Kill Activity: • (a) The activity of antimicrobial compositions was measured by the time kill method [ASTM E 2315 Standard Guide for Assessment of Antimicrobial Activity Using a Time Kill Procedure], whereby the survival of challenged organisms exposed to an antimicrobial test composition is […] as a function of time. In this test, a diluted aliquot of the composition is brought into contact with a known population of test bacteria for a specified time period at a specified temperature. The test composition is neutralized at the end of the time period, which arrests the antimicrobial activity of the composition. The percent or, alternatively, log reduction from the original bacteria population is calculated. In general, the time kill method is known to those skilled in the art. In addition, comparative data on the foam profile of representative systems is shown. • (b) The composition can be tested at any concentration from 0.01-100%. The choice of which concentration to use is at the discretion of the investigator, and suitable concentrations are readily determined by those skilled in the art. All testing if performed in triplicate, the results are combined, and the average log reduction is reported. • (c) The choice of contact time period also is at the discretion of the investigator. Any contact time period can be chosen. Typical contact times range from 15 second to 5 minutes, with 30 seconds and 1 minute being typical contact times. The contact temperature also can be any temperature, typically room temperature, or about 25 degrees Celsius. • (d) The microbial suspension, or test inoculum, is prepared by growing a microbial culture on any appropriate solid media (e.g., agar). The microbial population then is washed from the agar with sterile physiological saline and the population of the microbial suspension is adjusted to about 10^8 colony forming units per ml (cfu/ml). • (e) The table below lists the test microbial cultures used in the following tests and includes the name of the bacteria, the ATCC (American Type Culture Collection) identification number, and the abbreviation for the name of the organism used hereafter.
(§2) S. aureus is a Gram positive bacteria, whereas, E. coli is a Gram negative bacteria.
(§3) The log reduction is calculated using the formula: Log reduction=log10(numbers control)−log10(test sample survivors).
(§4) The following table correlates percent reduction in microbial population to log reduction: […]

[2] = tested on: Escherichia coli ATCC 112229; test: Time kill method (ASTM E 2315), E. coli; type: cell-based; conditions: 0.5% ADBAC Quat
Method: as §1, §2, §3, §4

[3] = 30 seconds exposure, 1.95% w/w foam boosting agent (amine oxide), 1.25% Poly Trimoniumhydroxypropyl Cocoglucosides Chloride
[4] = 30 seconds exposure, 3.0% w/w foam boosting agent (amine oxide), 1.25% Poly Trimoniumhydroxypropyl Cocoglucosides Chloride
[5] = 30 seconds exposure, 4.2% w/w foam boosting agent (amine oxide), 1.25% Poly Trimoniumhydroxypropyl Cocoglucosides Chloride
[6] = Table 10, 1.25% w/w quaternized sugar-derived surfactant, 1.95% Alkyl Dimethyl Amine Oxide

| Substance | S. aureus Log Reduction [1, 6] | E. coli Log Reduction [2, 6] | also measured |
| --- | --- | --- | --- |
| Alkyl Dimethyl Amine Oxide |  |  | S. aureus Log Reduction [1, 3]: >5.5; S. aureus Log Reduction [1, 4]: >5.5; S. aureus Log Reduction [1, 5]: >5.5; E. coli Log Reduction [2, 3]: >5.5; E. coli Log Reduction [2, 4]: >5.5; E. coli Log Reduction [2, 5]: >5.5 |
| Cocoglucosides Hydroxypropyl-trimonium Chloride [TM8610] | >5.0 | >5.0 |  |
| Lauridimonium-hydroxypropyl Cocoglucosides Chloride [Formula L8610] | >5.0 | >5.0 |  |
| Lauridimonium-hydroxypropyl Laurylglucosides Chloride [Formula L1210] | >5.0 | >5.0 |  |
| Laurylglucosides Hydroxypropyl-trimonium Chloride [TM1212] | >5.0 | >5.0 |  |
| Stearyldimonium-hydroxypropyl Laurylglucosides Chloride [Formula S1218] | >5.0 | >5.0 |  |
